The text below walks through data of ChEMBL document CHEMBL5543172, “Novel Isoalantolactone-Based Derivatives as Potent NLRP3 Inflammasome Inhibitors: Design, Synthesis, and Biological Characterization” (J Med Chem, 2024).

Data set [1] is described as follows: Metabolic stability in human liver microsomes assessed as half life preincubated for 5 mins followed by NADPH addition and measured upto 60 mins by LC-MS/MS analysis. The following applies: time < 65 min. The format is ADME, Microsome.
The nature of data set [2]: Metabolic stability in mouse liver microsomes assessed as half life preincubated for 5 mins followed by NADPH addition and measured upto 60 mins by LC-MS/MS analysis. The format is ADME, Microsome. The following applies: time < 65 min.
A short description of data set [3]: Drug distribution in C57BL/6 mouse colon at 30 mg/kg, ip measured after 0.5 hrs by LC-MS/MS analysis. The format is ADME, organism-based. The following applies: read-out: Drug uptake.
The nature of data set [4]: Apparent oral clearance in male C57BL/6 mouse at 30 mg/kg, ip measured upto 1440 mins by LC-MS/MS analysis. The following applies: in vivo, read-out: CLz/F (converted). The format is ADME, organism-based.
Data set [5] can be described thus: Drug distribution in C57BL/6 mouse plasma at 30 mg/kg, ip measured after 0.5 hrs by LC-MS/MS analysis. The format is ADME, organism-based.
The nature of data set [6]: Drug distribution in C57BL/6 mouse colon at 30 mg/kg, ip measured after 8 hrs by LC-MS/MS analysis. The format is ADME, organism-based. The following applies: read-out: Drug uptake.
Data set [7] is described as follows: Drug distribution in C57BL/6 mouse plasma at 30 mg/kg, ip measured after 2 hrs by LC-MS/MS analysis. The format is ADME, organism-based.
Data set [8] in a line: MRT (0 to t) in male C57BL/6 mouse at 30 mg/kg, ip measured upto 1440 mins by LC-MS/MS analysis. The format is ADME, organism-based. The following applies: in vivo.
Data set [9] can be described thus: Cmax in male C57BL/6 mouse at 30 mg/kg, ip measured upto 1440 mins by LC-MS/MS analysis. The format is ADME, organism-based. The following applies: in vivo.
Data set [10] in a line: Half life in male C57BL/6 mouse at 30 mg/kg, ip measured upto 1440 mins by LC-MS/MS analysis. The format is ADME, organism-based. The following applies: in vivo.
Data set [11] is described as follows: Drug distribution in C57BL/6 mouse colon at 30 mg/kg, ip measured after 24 hrs by LC-MS/MS analysis. The format is ADME, organism-based. The following applies: read-out: Drug uptake.
A short description of data set [12]: AUC (0 to t) in male C57BL/6 mouse at 30 mg/kg, ip measured upto 1440 mins by LC-MS/MS analysis. The format is ADME, organism-based. The following applies: in vivo.
Data set [13] is described as follows: Tmax in male C57BL/6 mouse at 30 mg/kg, ip measured upto 1440 mins by LC-MS/MS analysis. The following applies: in vivo. The format is ADME, organism-based.
Data set [14] can be described thus: Drug distribution in C57BL/6 mouse colon at 30 mg/kg, ip measured after 2 hrs by LC-MS/MS analysis. The following applies: read-out: Drug uptake. The format is ADME, organism-based.

Regarding `C=C1C(=O)O[C@@H]2C[C@@]3(C)CC[C@@H](OC(=O)c4c(Cl)ccnc4Cl)C(=C)[C@@H]3C[C@H]12`, the figures for the half-life in data set [1] and in data set [2] were 118 min and 47.1 min, respectively.
With `C=C1C(=O)O[C@@H]2C[C@@]3(C)CC[C@@H](OC(=O)/C=C/C(=O)c4ccccc4)C(=C)[C@@H]3C[C@H]12`, the half-life in data set [1] stood at 10.4 min; in [2] it was 19.2 min.
`C=C1C(=O)O[C@@H]2C[C@@]3(C)CCCC(=C)[C@@H]3C[C@H]12` [ISOALANTOLACTONE]: the half-life in data set [1] was 4.47 min; in data set [2] it was 9.1 min; in data set [10], 127 min. The figures for the concentration at 0.5 h in data set [3] and in [5] were 3320 ng/g and 27.4 ng/mL, respectively. Further, in data set [4], the CL/F was 2020 mL/min/kg. For the same compound, the concentration at 8 h in data set [6] came to 3120 ng/g. In addition, the results for the concentration at 2 h in [7] and in [14] were 7.71 ng/mL and 293 ng/g, respectively. In addition, the MRT last at 24 h in data set [8] stood at 110 min. Also, the Cmax in [9] was 159 ng/mL. Further, the concentration at 24 h in data set [11] is 26.9 ng/g. In addition, the exposure AUC(0-t) at 24 h in [12] was found to be 230 ng·h/mL. Further, the Tmax in [13] is 13.2 min.
On to `C=C1C(=O)O[C@@H]2C[C@@]3(C)CC[C@@H](OC(=O)/C=C/C(=O)c4ccc(F)cc4)C(=C)[C@@H]3C[C@H]12`, for which the half-life in data set [1] worked out at 31.1 min; in data set [2] it was 44.1 min.
With `C=C1C(=O)O[C@@H]2C[C@@]3(C)CC[C@@H](OC(=O)/C=C/C(=O)c4ccc(C(F)(F)F)cc4)C(=C)[C@@H]3C[C@H]12`, the half-life in data set [1] was 20.6 min; in data set [2] it was 27.2 min.
On to `C=C1C(=O)O[C@@H]2C[C@@]3(C)CC[C@@H](OC(=O)c4cc(Cl)cnc4Cl)C(=C)[C@@H]3C[C@H]12`, for which the values for the half-life in [1] and in data set [2] were 95.7 min and 12.6 min, respectively.
